Data: US12398140B2, “Substituted pyrrolo [2,3-d]pyrimidines for treating familial dysautonomia” (PTC THERAPEUTICS, INC., priority 2019, dated 2025)

Tested on: Elongator complex protein 1 (ELPI, also referred to as IKBKAP)
Assay: IKBKAP-HTRF assay (IKBKAP protein in lysates of FD patient-derived fibroblasts)
Type: cell-based, human
Details: FD patient-derived fibroblasts GM04589, 48 hours, 7-point concentration curve
Procedure: The assay is used for the quantitative determination of Elongator complex protein 1 (ELPI, also referred to as IKBKAP) concentration in cell lysates using the HTRF® (Homogeneous Time-Resolved Fluorescence) technology. IKBKAP is detected in a sandwich HTRF assay by use of an anti-IKAP antibody labeled with a donor and an anti-IKAP antibody labeled with an acceptor.
Cells were thawed and incubated in DMEM-10% FBS for 72 hours. Cells were trypsinized, counted, and re-suspended to a concentration of 50,000 cells/ml in DMEM-10% FBS. A 199 μL aliquot of the cell suspensions were plated at 10,000 cells per well in a 96 well microtiter plate and incubated for 3 to 5 hours. […] Test compounds were serially diluted 3.16-fold in 100% DMSO to generate a 7-point concentration curve. A 1 μL aliquot of 200× compound solution was transferred to cell-containing wells, and cells were incubated for 48 hours in a cell culture incubator (37° C., 5% CO2, 100% relative humidity). Triplicate samples were set up for each compound concentration. After 48 hours, the supernatant was removed from the cells and 50 μL of the 1×LB4 lysis buffer, containing protease inhibitors, was added to the cells and incubated with shaking at room temperature for 1 hour. A 36 μL aliquot of this lysate was subsequently transferred to the 384-well plate containing 4 μL of the antibody solution (1:50 dilution of anti IKAP d2 and anti-IKAP K(9+8) in detection buffer). The 384-well plate was then centrifuged for 1 minute to bring the solutions to the bottom of the plate and incubated overnight at 4° C. Fluorescence for each well of the plate at 665 nm and 620 nm was measured was on the EnVision plate reader (Perkin Elmer). The ΔF for each sample is calculated by:
[formula] wherein Signal is the normalized fluorescence for each sample well and Blank is the average normalized average fluorescence for the Blank control wells.
The maximum fold increase (MFI) in IKBKAP protein abundance for compounds of Formula (I) or a form thereof relative to the vehicle control are provided in Table 1. MFI was calculated by dividing the ΔF value for each sample well by the sample ΔF for the vehicle control wells.
The EC2x for IKBKAP protein expression obtained from the 7-point concentration curve generated for each test compound according to the protocol in Biological Example 1 are also provided in Table 1. The term “EC2x for IKBKAP protein expression” is defined as the concentration of test compound that is effective in producing two times the amount of IKBKAP protein in a FD patient cell compared to the amount produced from the DMSO vehicle control.

Cc1nc(NCc2ccco2)c2c(F)c(C[C@H](C)N)[nH]c2n1.Cl [Cpd 34, 6-[(2S)-2-aminopropyl]-5-fluoro-N-[(furan-2-yl)methyl]-2-methyl-7H-pyrrolo[2,3-d]pyrimidin-4-amine hydrochloride] was tested, and the “EC2x for IKBKAP protein expression (concentration producing two times the amount of IKBKAP protein vs DMSO vehicle control)” value was “*** (between >0.02 μM and ≤0.5 μM is indicated by three stars (***))” and the “MFI (maximum fold increase in IKBKAP protein abundance relative to the vehicle control)” value was “***** (>4.9 is indicated by five stars (*****))”.

For CNCCc1cc2c(NCc3ccco3)nc(Cl)nc2[nH]1.Cl [Cpd 3, 2-chloro-N-[(furan-2-yl)methyl]-6-[2-(methylamino)ethyl]-7H-pyrrolo[2,3-d]pyrimidin-4-amine hydrochloride], the “EC2x for IKBKAP protein expression (concentration producing two times the amount of IKBKAP protein vs DMSO vehicle control)” value was “*** (between >0.02 μM and ≤0.5 μM is indicated by three stars (***))” and the “MFI (maximum fold increase in IKBKAP protein abundance relative to the vehicle control)” value was “***** (>4.9 is indicated by five stars (*****))”.

With CC[C@H](N)Cc1c(F)c2c(NCc3ccco3)nc(Cl)nc2n1C.Cl [Cpd 45, 6-[(2S)-2-aminobutyl]-2-chloro-5-fluoro-N-[(furan-2-yl)methyl]-7-methyl-7H-pyrrolo[2,3-d]pyrimidin-4-amine hydrochloride] the “EC2x for IKBKAP protein expression (concentration producing two times the amount of IKBKAP protein vs DMSO vehicle control)” value was “*** (between >0.02 μM and ≤0.5 μM is indicated by three stars (***))” and the “MFI (maximum fold increase in IKBKAP protein abundance relative to the vehicle control)” value was “***** (>4.9 is indicated by five stars (*****))”.

For C[C@H](N)Cc1cc2c(NCc3cccs3)nc(Cl)nc2[nH]1.Cl [Cpd 25, 6-[(2S)-2-aminopropyl]-2-chloro-N-[(thiophen-2-yl)methyl]-7H-pyrrolo[2,3-d]pyrimidin-4-amine hydrochloride], the “EC2x for IKBKAP protein expression (concentration producing two times the amount of IKBKAP protein vs DMSO vehicle control)” value was “**** (between >0.005 μM and ≤0.02 μM is indicated by four stars (****))” and the “MFI (maximum fold increase in IKBKAP protein abundance relative to the vehicle control)” value was “***** (>4.9 is indicated by five stars (*****))”.

In the case of C[C@H](N)Cc1c(F)c2c(NCc3ccccc3F)nc(Cl)nc2n1C.Cl [Cpd 53, 6-[(2S)-2-aminopropyl]-2-chloro-5-fluoro-N-[(2-fluorophenyl)methyl]-7-methyl-7H-pyrrolo[2,3-d]pyrimidin-4-amine hydrochloride], the “EC2x for IKBKAP protein expression (concentration producing two times the amount of IKBKAP protein vs DMSO vehicle control)” value is reported as “*** (between >0.02 μM and ≤0.5 μM is indicated by three stars (***))” and the “MFI (maximum fold increase in IKBKAP protein abundance relative to the vehicle control)” value is reported as “**** (between >3.9 and ≤4.9 is indicated by four stars (****))”.

In the case of CC(C)[C@H](N)Cc1cc2c(NCc3ccco3)nc(Cl)nc2[nH]1.Cl [Cpd 11, 6-[(2R)-2-amino-3-methylbutyl]-2-chloro-N-[(furan-2-yl)methyl]-7H-pyrrolo[2,3-d]pyrimidin-4-amine hydrochloride], the “EC2x for IKBKAP protein expression (concentration producing two times the amount of IKBKAP protein vs DMSO vehicle control)” value is reported as “*** (between >0.02 μM and ≤0.5 μM is indicated by three stars (***))” and the “MFI (maximum fold increase in IKBKAP protein abundance relative to the vehicle control)” value is reported as “**** (between >3.9 and ≤4.9 is indicated by four stars (****))”.

In the case of Cl.NCCCc1cc2c(NCc3ccco3)nc(Cl)nc2[nH]1 [Cpd 1, 6-(3-aminopropyl)-2-chloro-N-[(furan-2-yl)methyl]-7H-pyrrolo[2,3-d]pyrimidin-4-amine hydrochloride], the “EC2x for IKBKAP protein expression (concentration producing two times the amount of IKBKAP protein vs DMSO vehicle control)” value is reported as “*** (between >0.02 μM and ≤0.5 μM is indicated by three stars (***))” and the “MFI (maximum fold increase in IKBKAP protein abundance relative to the vehicle control)” value is reported as “**** (between >3.9 and ≤4.9 is indicated by four stars (****))”.

With CNCCc1[nH]c2nc(Cl)nc(NCc3ccco3)c2c1Cl.Cl [Cpd 17, 2,5-dichloro-N-[(furan-2-yl)methyl]-6-[2-(methylamino)ethyl]-7H-pyrrolo[2,3-d]pyrimidin-4-amine hydrochloride] the “EC2x for IKBKAP protein expression (concentration producing two times the amount of IKBKAP protein vs DMSO vehicle control)” value was “*** (between >0.02 μM and ≤0.5 μM is indicated by three stars (***))” and the “MFI (maximum fold increase in IKBKAP protein abundance relative to the vehicle control)” value was “**** (between >3.9 and ≤4.9 is indicated by four stars (****))”.
